Experimental data reported in PubChem BioAssay (NCI).
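Cultured in 96-well plates, cells were exposed to test compound for 48 hours across five concentrations. TGI is the concentration that stops growth completely.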

Assays:
Test in all cases: NCI tumour cell line growth inhibition, 48 h
[1] = test system: SNB-78 CNS
[2] = test system: DMS 114 small cell lung
[3] = test system: OVCAR-5 ovarian
[4] = test system: SK-MEL-5 melanoma
[5] = test system: SF-295 CNS
[6] = test system: A549 NSCLC
[7] = test system: HCT-15 colon
[8] = test system: OVCAR-8 ovarian
[9] = test system: HOP-62 NSCLC
[10] = test system: MOLT-4 leukemia
[11] = test system: KM20L2 colon
[12] = test system: MALME-3M melanoma
[13] = test system: COLO 205 colon
[14] = test system: SK-MEL-2 melanoma
[15] = test system: SN12C renal
[16] = test system: K-562 leukemia
[17] = test system: DMS 273 small cell lung
[18] = test system: XF 498 CNS
[19] = test system: HL-60(TB) leukemia
[20] = test system: UO-31 renal
[21] = test system: HCT-116 colon
[22] = test system: SNB-19 CNS
[23] = test system: SK-MEL-28 melanoma
[24] = test system: HT29 colon
[25] = test system: SR leukemia
[26] = test system: SK-OV-3 ovarian
[27] = test system: NCI-H23 lung
[28] = test system: M19-MEL melanoma
[29] = test system: RXF 393 renal
[30] = test system: NCI-H460 lung
[31] = test system: M14 melanoma
[32] = test system: EKVX NSCLC
[33] = test system: CAKI-1 renal
[34] = test system: SNB-75 CNS
[35] = test system: IGROV1 ovarian
[36] = test system: SW-620 colon
[37] = test system: ACHN renal
[38] = test system: SF-539 CNS
[39] = test system: KM12 colon
[40] = test system: SF-268 CNS
[41] = test system: OVCAR-4 ovarian
[42] = test system: TK-10 renal
[43] = test system: UACC-257 melanoma
[44] = test system: A498 renal
[45] = test system: RPMI-8226 leukemia
[46] = test system: LOX IMVI melanoma
[47] = test system: NCI-H226 lung
[48] = test system: U251 CNS
[49] = test system: 786-0 renal
[50] = test system: HCC-2998 colon
[51] = test system: OVCAR-3 ovarian
[52] = test system: DLD-1 colon
[53] = test system: CCRF-CEM leukemia
[54] = test system: LXFL 529 NSCLC
[55] = test system: UACC-62 melanoma

## FC(F)(F)c1cccc(C=NC23CC4CC(CC(C4)C2)C3)c1
[1]
  TGI: > 100 µM
[2]
  TGI: > 100 µM
[3]
  TGI: > 100 µM
[4]
  TGI: > 100 µM
[5]
  TGI: > 100 µM
[6]
  TGI: > 100 µM
[7]
  TGI: > 100 µM
[8]
  TGI: > 100 µM
[9]
  TGI: > 100 µM
[10]
  TGI: > 100 µM
[11]
  TGI: > 100 µM
[12]
  TGI: > 100 µM
[13]
  TGI: > 100 µM
[14]
  TGI: > 100 µM
[15]
  TGI: > 100 µM
[16]
  TGI: > 100 µM
[17]
  TGI: > 100 µM
[18]
  TGI: > 100 µM
[19]
  TGI: > 100 µM
[20]
  TGI: > 100 µM
[21]
  TGI: > 100 µM
[22]
  TGI: > 100 µM
[23]
  TGI: > 100 µM
[24]
  TGI: > 100 µM
[25]
  TGI: > 100 µM
[26]
  TGI: > 100 µM
[27]
  TGI: > 100 µM
[28]
  TGI: > 100 µM
[29]
  TGI: > 100 µM
[30]
  TGI: > 100 µM
[31]
  TGI: > 100 µM
[32]
  TGI: > 100 µM
[33]
  TGI: > 100 µM
[34]
  TGI: > 100 µM
[35]
  TGI: > 100 µM
[36]
  TGI: > 100 µM
[37]
  TGI: > 100 µM
[38]
  TGI: > 100 µM
[39]
  TGI: > 100 µM
[40]
  TGI: > 100 µM
[41]
  TGI: > 100 µM
[42]
  TGI: > 100 µM
[43]
  TGI: > 100 µM
[44]
  TGI: > 100 µM
[45]
  TGI: > 100 µM
[46]
  TGI: > 100 µM
[47]
  TGI: > 100 µM
[48]
  TGI: > 100 µM
[49]
  TGI: > 100 µM
[50]
  TGI: > 100 µM
[51]
  TGI: > 100 µM

## CC(=O)O[C@H]1CC[C@@]2(C)C(=CC[C@@H]3C2CC[C@]2(C)Nc4c(cnn4-c4ccccc4)CC32)C1 (stereo partly drawn)
[1]
  TGI: > 100 µM
[2]
  TGI: > 100 µM
[3]
  TGI: > 100 µM
[4]
  TGI: > 100 µM
[5]
  TGI: 8.52 µM
[6]
  TGI: > 100 µM
[7]
  TGI: > 100 µM
[8]
  TGI: > 100 µM
[9]
  TGI: 63.9 µM
[11]
  TGI: > 100 µM
[12]
  TGI: > 100 µM
[14]
  TGI: > 100 µM
[17]
  TGI: 18.4 µM
[18]
  TGI: > 100 µM
[19]
  TGI: > 100 µM
[20]
  TGI: 84 µM
[21]
  TGI: > 100 µM
[23]
  TGI: > 100 µM
[24]
  TGI: > 100 µM
[52]
  TGI: > 100 µM
[26]
  TGI: > 100 µM
[27]
  TGI: > 100 µM
[28]
  TGI: > 100 µM
[53]
  TGI: > 100 µM
[29]
  TGI: 42.2 µM
[30]
  TGI: > 100 µM
[31]
  TGI: > 100 µM
[32]
  TGI: > 100 µM
[33]
  TGI: > 100 µM
[34]
  TGI: 30.8 µM
[35]
  TGI: > 100 µM
[36]
  TGI: > 100 µM
[54]
  TGI: > 100 µM
[55]
  TGI: > 100 µM
[37]
  TGI: > 100 µM
[38]
  TGI: 9.12 µM
[39]
  TGI: 69.8 µM
[41]
  TGI: 66.9 µM
[42]
  TGI: > 100 µM
[43]
  TGI: > 100 µM
[44]
  TGI: 51.9 µM
[45]
  TGI: 6.62 µM
[47]
  TGI: > 100 µM
[48]
  TGI: > 100 µM
[49]
  TGI: 36.6 µM
[50]
  TGI: 70.8 µM
[51]
  TGI: > 100 µM
